Laboratory results from article PMC12609530, “Capillary Electrophoresis as a Useful Tool to Separate Isomeric Opioid–Neurotensin Hybrid Peptides” (Molecules, 2025).
Read-outs that look alike come from different tables or passages of the source. Square brackets hold non-standard residues; d marks the D form. Peptide text beside a SMILES is read from it. Dmt = Cc1cc(O)cc(C)c1C[C@H](N)C(=O)O; Tle = CC(C)(C)[C@H](N)C(=O)O

Conditions: CE-UV 200 nm; for BenchTop Obtained Concentration, Mean ± SD / BenchTop Obtained Concentration, %: after 6 h at room temperature; for BenchTop Obtained Concentration, Mean ± SD: ACN/0.1% TFA extraction; for BenchTop Obtained Concentration, Mean ± SD / Freeze and Thaw Obtained Concentration, Mean ± SD / Short Term Obtained Concentration, Mean ± SD: mean ± SD for five replicates; for BenchTop Obtained Concentration, % / Freeze and Thaw Obtained Concentration, % / Short Term Obtained Concentration, %: % of spiked concentration, five replicates; for Freeze and Thaw Obtained Concentration, % / Freeze and Thaw Obtained Concentration, Mean ± SD: after three freeze and thaw cycles at −20 °C; for Short Term Obtained Concentration, % / Short Term Obtained Concentration, Mean ± SD: at −25 °C for 30 days
Procedure: To ensure the applicability of the method for bioanalytical studies, stability tests were conducted under various storage and handling conditions.
The stock solutions of PK20 and [Ile9]PK20 compounds at a concentration of 10,000 ng/mL were prepared by dissolving the appropriate amounts of the substances in a 25 mM phosphate buffer at pH 2.5. Calibration solutions at specific concentrations were prepared on their basis. All solutions were stored at −15 °C. […] Calibration solutions at concentrations of 10, 50, 100, 500, 1000, and 5000 ng/mL were prepared in both water and serum by adding appropriate volumes of the stock solutions to serum samples free of the tested analytes.
To a 100 µL serum sample, 200 µL of acetonitrile (ACN) containing 0.1% trifluoroacetic acid (TFA) was added then immediately mixed by vortexing and centrifuged at 20,000× g for 4 min. The resulting supernatant was filtered using an ultrafiltration centrifuge (MWCO 30,000; Microcon YM-30, Millipore Corporation, Bradford, MA, USA) and then lyophilized. The dry residue was dissolved in 100 µL of deionized water and introduced into the capillary. The extraction procedure for PK20 and [Ile9]PK20 compounds was performed for three concentration ranges, namely 20 ng/mL, 500 ng/mL, and 5000 ng/mL.
Samples were introduced into the system hydrodynamically at a pressure of 2 psi for 6 s. Electrophoresis was performed at a voltage of 10 kV (normal polarity, anode on the inlet side of the capillary) at a temperature of 25 °C. Between subsequent analyses, the capillary was rinsed with water for 2 min and with BGE for 3 min. After each series of analyses, the working buffer was replaced to ensure repeatable separations.

| Compound | BenchTop Obtained Concentration, Mean ± SD (spiked 50 ng/mL in serum) | BenchTop Obtained Concentration, % (spiked 50 ng/mL in serum) | Freeze and Thaw Obtained Concentration, % (spiked 50 ng/mL in serum) | Freeze and Thaw Obtained Concentration, Mean ± SD (spiked 50 ng/mL in serum) | Short Term Obtained Concentration, % (spiked 50 ng/mL in serum) | Short Term Obtained Concentration, Mean ± SD (spiked 50 ng/mL in serum) | BenchTop Obtained Concentration, Mean ± SD (spiked 500 ng/mL in serum) | BenchTop Obtained Concentration, % (spiked 500 ng/mL in serum) | Freeze and Thaw Obtained Concentration, % (spiked 500 ng/mL in serum) | Freeze and Thaw Obtained Concentration, Mean ± SD (spiked 500 ng/mL in serum) | Short Term Obtained Concentration, % (spiked 500 ng/mL in serum) | Short Term Obtained Concentration, Mean ± SD (spiked 500 ng/mL in serum) |
| --- | --- | --- | --- | --- | --- | --- | --- | --- | --- | --- | --- | --- |
| Cc1cc(O)cc(C)c1C[C@H](N)C(=O)N[C@H](CCCCN)C(=O)N[C@@H](Cc1ccccc1)C(=O)N[C@@H](Cc1ccccc1)C(=O)N[C@@H](CCCCN)C(=O)N[C@@H](CCCCN)C(=O)N1CCC[C@H]1C(=O)N[C@@H](Cc1ccccc1)C(=O)N[C@H](C(=O)N[C@@H](CC(C)C)C(=O)O)C(C)(C)C [PK20, H-Dmt-D-Lys-Phe-Phe-Lys-Lys-Pro-Phe-Tle-Leu-OH] (H-[Dmt][dK]FFKKPF[Tle]L-OH) | 23.92 ± 1.2 ng/mL | 47.84% | 24.10% | 12.05 ± 1.5 ng/mL | 95.04% | 47.52 ± 1.4 ng/mL | 240.53 ± 0.9 ng/mL | 48.11% | 25.24% | 126.20 ± 0.7 ng/mL | 99.12% | 495.58 ± 1.1 ng/mL |
| CC[C@H](C)[C@H](NC(=O)[C@H](Cc1ccccc1)NC(=O)[C@@H]1CCCN1C(=O)[C@H](CCCCN)NC(=O)[C@H](CCCCN)NC(=O)[C@H](Cc1ccccc1)NC(=O)[C@H](Cc1ccccc1)NC(=O)[C@@H](CCCCN)NC(=O)[C@@H](N)Cc1c(C)cc(O)cc1C)C(=O)N[C@@H](CC(C)C)C(=O)O [[Ile9]PK20, H-Dmt-D-Lys-Phe-Phe-Lys-Lys-Pro-Phe-Ile-Leu-OH] (H-[Dmt][dK]FFKKPFIL-OH) | 24.46 ± 1.1 ng/mL | 48.92% | 25.44% | 12.72 ± 1.4 ng/mL | 97.70% | 48.85 ± 1.2 ng/mL | 246.15 ± 1.0 ng/mL | 49.23% | 25.51% | 127.53 ± 1.2 ng/mL | 99.56% | 497.80 ± 1.1 ng/mL |
